Results as given in ChEMBL document CHEMBL1201862, “PubChem BioAssay data set” (2004).
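Results reflect a 48-hour exposure of cells in 96-well plates to compound at five concentrations. Here, GI50 denotes the concentration required for 50% inhibition of growth.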 The source made the active and inactive calls. Cut-off read from the data, not from the text of the source: active = GI50 up to about 1.1 µM and inactive = higher.

Key:
Assay in all cases: NCI anticancer screen, dose series, 48 h
NCI-H226 = tested on: NCI-H226
K562 = tested on: K562
PC-3 = tested on: PC-3
OVCAR-5 = tested on: OVCAR-5
RPMI-8226 = tested on: RPMI-8226
HOP-62 = tested on: HOP-62
DU-145 = tested on: DU-145
786-0 = tested on: 786-0
BT-549 = tested on: BT-549
SK-MEL-2 = tested on: SK-MEL-2
COLO 205 = tested on: COLO 205
OVCAR-3 = tested on: OVCAR-3
A549 = tested on: A549
Hs-578T = tested on: Hs-578T
EKVX = tested on: EKVX
SNB-75 = tested on: SNB-75
NCI-H23 = tested on: NCI-H23
SF-295 = tested on: SF-295
OVCAR-4 = tested on: OVCAR-4
NCI-H460 = tested on: NCI-H460
SF-268 = tested on: SF-268
A498 = tested on: A498
LOX IMVI = tested on: LOX IMVI
NCI/ADR-RES = tested on: NCI/ADR-RES
SK-MEL-28 = tested on: SK-MEL-28
RXF 393 = tested on: RXF 393
CCRF-CEM = tested on: CCRF-CEM
KM12 = tested on: KM12
T47D = tested on: T47D
MDA-MB-435 = tested on: MDA-MB-435
SN12C = tested on: SN12C
OVCAR-8 = tested on: OVCAR-8
SW-620 = tested on: SW-620
U-251 = tested on: U-251
MDA-N = tested on: MDA-N
UACC-257 = tested on: UACC-257
SR = tested on: SR
CAKI-1 = tested on: CAKI-1
SK-MEL-5 = tested on: SK-MEL-5
HCC 2998 = tested on: HCC 2998
IGROV-1 = tested on: IGROV-1
SNB-19 = tested on: SNB-19
HL-60 = tested on: HL-60
UACC-62 = tested on: UACC-62
ACHN = tested on: ACHN
MCF7 = tested on: MCF7
UO-31 = tested on: UO-31
HCT-15 = tested on: HCT-15
MOLT-4 = tested on: MOLT-4
NCI-H522 = tested on: NCI-H522
TK-10 = tested on: TK-10
HCT-116 = tested on: HCT-116
M14 = tested on: M14
Malme-3M = tested on: Malme-3M
MDA-MB-231 = tested on: MDA-MB-231
SF-539 = tested on: SF-539
HOP-92 = tested on: HOP-92
HT-29 = tested on: HT-29
SK-OV-3 = tested on: SK-OV-3

Structure (SMILES): CC(=O)c1cccn1/C=C(\OC(=O)OC(C)(C)C)c1ccc[nH]1
- GI50 (NCI-H226): 33.2 µM (inactive)
- GI50 (K562): 59.6 µM (inactive)
- GI50 (PC-3): 49.1 µM (inactive)
- GI50 (OVCAR-5): 51.2 µM (inactive)
- GI50 (RPMI-8226): 59 µM (inactive)
- GI50 (HOP-62): 77.3 µM (inactive)
- GI50 (DU-145): 58.9 µM (inactive)
- GI50 (786-0): > 100 µM (inactive)
- GI50 (BT-549): 60.7 µM (inactive)
- GI50 (SK-MEL-2): > 100 µM (inactive)
- GI50 (COLO 205): 89.7 µM (inactive)
- GI50 (OVCAR-3): 46.6 µM (inactive)
- GI50 (A549): 60 µM (inactive)
- GI50 (Hs-578T): > 100 µM (inactive)
- GI50 (EKVX): 25.5 µM (inactive)
- GI50 (SNB-75): 8.24 µM (inactive)
- GI50 (NCI-H23): 69.8 µM (inactive)
- GI50 (SF-295): 39.4 µM (inactive)
- GI50 (OVCAR-4): 42 µM (inactive)
- GI50 (NCI-H460): > 100 µM (inactive)
- GI50 (SF-268): 77.3 µM (inactive)
- GI50 (A498): 34.8 µM (inactive)
- GI50 (LOX IMVI): 62.4 µM (inactive)
- GI50 (NCI/ADR-RES): 50.2 µM (inactive)
- GI50 (SK-MEL-28): 96.6 µM (inactive)
- GI50 (RXF 393): 33.8 µM (inactive)
- GI50 (CCRF-CEM): 39.8 µM (inactive)
- GI50 (KM12): 46.3 µM (inactive)
- GI50 (T47D): 33 µM (inactive)
- GI50 (MDA-MB-435): > 100 µM (inactive)
- GI50 (SN12C): 96.8 µM (inactive)
- GI50 (OVCAR-8): 99.5 µM (inactive)
- GI50 (SW-620): 83.9 µM (inactive)
- GI50 (U-251): 64.4 µM (inactive)
- GI50 (MDA-N): 81.8 µM (inactive)
- GI50 (UACC-257): > 100 µM (inactive)
- GI50 (SR): 31 µM (inactive)
- GI50 (CAKI-1): 22 µM (inactive)
- GI50 (SK-MEL-5): 40.3 µM (inactive)
- GI50 (HCC 2998): > 100 µM (inactive)
- GI50 (IGROV-1): 40.6 µM (inactive)
- GI50 (SNB-19): 46.7 µM (inactive)
- GI50 (HL-60): 31 µM (inactive)
- GI50 (UACC-62): 99.1 µM (inactive)
- GI50 (ACHN): > 100 µM (inactive)
- GI50 (MCF7): 76.4 µM (inactive)
- GI50 (UO-31): 36.9 µM (inactive)
- GI50 (HCT-15): 55.5 µM
- GI50 (MOLT-4): 48.2 µM (inactive)
- GI50 (NCI-H522): 57 µM (inactive)
- GI50 (TK-10): > 100 µM (inactive)
- GI50 (HCT-116): 41.3 µM (inactive)
- GI50 (M14): 76.4 µM (inactive)
- GI50 (Malme-3M): > 100 µM (inactive)
- GI50 (MDA-MB-231): 73.8 µM (inactive)

Structure (SMILES): CN1C(=O)c2ccccc2NC(=O)C12O[C@@H]2c1ccccc1 (stereo partly specified)
- GI50 (PC-3): > 100 µM (inactive)
- GI50 (OVCAR-5): > 100 µM (inactive)
- GI50 (SF-539): > 100 µM (inactive)
- GI50 (RPMI-8226): > 100 µM (inactive)
- GI50 (HOP-62): > 100 µM (inactive)
- GI50 (DU-145): > 100 µM (inactive)
- GI50 (786-0): > 100 µM (inactive)
- GI50 (BT-549): > 100 µM (inactive)
- GI50 (SK-MEL-2): > 100 µM (inactive)
- GI50 (COLO 205): > 100 µM (inactive)
- GI50 (OVCAR-3): > 100 µM (inactive)
- GI50 (A549): > 100 µM (inactive)
- GI50 (Hs-578T): > 100 µM (inactive)
- GI50 (EKVX): > 100 µM (inactive)
- GI50 (SNB-75): 62.8 µM (inactive)
- GI50 (NCI-H23): > 100 µM (inactive)
- GI50 (SF-295): > 100 µM (inactive)
- GI50 (OVCAR-4): > 100 µM (inactive)
- GI50 (NCI-H460): > 100 µM (inactive)
- GI50 (SF-268): > 100 µM (inactive)
- GI50 (A498): > 100 µM (inactive)
- GI50 (HOP-92): > 100 µM (inactive)
- GI50 (LOX IMVI): > 100 µM (inactive)
- GI50 (NCI/ADR-RES): > 100 µM (inactive)
- GI50 (SK-MEL-28): > 100 µM (inactive)
- GI50 (CCRF-CEM): > 100 µM (inactive)
- GI50 (KM12): > 100 µM (inactive)
- GI50 (T47D): > 100 µM (inactive)
- GI50 (MDA-MB-435): > 100 µM (inactive)
- GI50 (SN12C): > 100 µM (inactive)
- GI50 (OVCAR-8): > 100 µM (inactive)
- GI50 (SW-620): > 100 µM (inactive)
- GI50 (U-251): > 100 µM (inactive)
- GI50 (HT-29): > 100 µM (inactive)
- GI50 (MDA-N): > 100 µM (inactive)
- GI50 (UACC-257): > 100 µM (inactive)
- GI50 (SR): > 100 µM (inactive)
- GI50 (CAKI-1): 75.2 µM (inactive)
- GI50 (SK-MEL-5): > 100 µM (inactive)
- GI50 (HCC 2998): > 100 µM (inactive)
- GI50 (IGROV-1): > 100 µM (inactive)
- GI50 (SNB-19): > 10 µM (inactive)
- GI50 (HL-60): > 100 µM (inactive)
- GI50 (UACC-62): > 100 µM (inactive)
- GI50 (ACHN): > 100 µM (inactive)
- GI50 (MCF7): > 100 µM (inactive)
- GI50 (UO-31): > 100 µM (inactive)
- GI50 (HCT-15): > 10 µM
- GI50 (MOLT-4): > 100 µM (inactive)
- GI50 (NCI-H522): > 100 µM (inactive)
- GI50 (TK-10): > 100 µM (inactive)
- GI50 (HCT-116): > 100 µM (inactive)
- GI50 (M14): > 100 µM (inactive)
- GI50 (Malme-3M): > 100 µM (inactive)
- GI50 (MDA-MB-231): 67.6 µM (inactive)

Structure (SMILES): CN1C(=O)c2ccccc2OC12C=Cc1ccc(O)cc1O2 (stereo unspecified)
- GI50 (NCI-H226): 23.2 µM (inactive)
- GI50 (K562): 24.1 µM (inactive)
- GI50 (PC-3): 21.3 µM (inactive)
- GI50 (OVCAR-5): 20.7 µM (inactive)
- GI50 (RPMI-8226): 30.3 µM (inactive)
- GI50 (HOP-62): 13.3 µM (inactive)
- GI50 (DU-145): 22.6 µM (inactive)
- GI50 (786-0): 31.6 µM (inactive)
- GI50 (BT-549): 30.8 µM (inactive)
- GI50 (SK-MEL-2): 20.6 µM (inactive)
- GI50 (COLO 205): 22.2 µM (inactive)
- GI50 (OVCAR-3): 17.1 µM (inactive)
- GI50 (A549): 30.8 µM (inactive)
- GI50 (Hs-578T): 19.3 µM (inactive)
- GI50 (EKVX): 18.6 µM (inactive)
- GI50 (SNB-75): 22.8 µM (inactive)
- GI50 (NCI-H23): 28.2 µM (inactive)
- GI50 (SF-295): 29.9 µM (inactive)
- GI50 (OVCAR-4): 28.1 µM (inactive)
- GI50 (NCI-H460): 20 µM (inactive)
- GI50 (SK-OV-3): 19.5 µM (inactive)
- GI50 (SF-268): 26.9 µM (inactive)
- GI50 (A498): 18.4 µM (inactive)
- GI50 (HOP-92): 27.2 µM (inactive)
- GI50 (LOX IMVI): 9.62 µM (inactive)
- GI50 (NCI/ADR-RES): 13.5 µM (inactive)
- GI50 (SK-MEL-28): 21.3 µM (inactive)
- GI50 (CCRF-CEM): 19.3 µM (inactive)
- GI50 (KM12): 25.2 µM (inactive)
- GI50 (T47D): 13.8 µM (inactive)
- GI50 (MDA-MB-435): 16.4 µM (inactive)
- GI50 (SN12C): 26.7 µM (inactive)
- GI50 (OVCAR-8): 12.7 µM (inactive)
- GI50 (SW-620): 26.6 µM (inactive)
- GI50 (U-251): 24.8 µM (inactive)
- GI50 (HT-29): 22.3 µM (inactive)
- GI50 (MDA-N): 31 µM (inactive)
- GI50 (UACC-257): 15.6 µM (inactive)
- GI50 (SR): < 0.01 µM (active)
- GI50 (CAKI-1): 16.1 µM (inactive)
- GI50 (SK-MEL-5): 17.3 µM (inactive)
- GI50 (HCC 2998): 18.9 µM (inactive)
- GI50 (IGROV-1): 28.2 µM (inactive)
- GI50 (SNB-19): 20.4 µM (inactive)
- GI50 (HL-60): 17.8 µM (inactive)
- GI50 (UACC-62): 28.8 µM (inactive)
- GI50 (ACHN): 23 µM (inactive)
- GI50 (MCF7): 32.4 µM (inactive)
- GI50 (UO-31): 18.7 µM (inactive)
- GI50 (HCT-15): 29.6 µM
- GI50 (MOLT-4): 16.7 µM (inactive)
- GI50 (NCI-H522): 20.4 µM (inactive)
- GI50 (TK-10): 26.8 µM (inactive)
- GI50 (HCT-116): 25.8 µM (inactive)
- GI50 (M14): 12.7 µM (inactive)
- GI50 (MDA-MB-231): 18.5 µM (inactive)
